Reference: patent publication US12661361B2, “Resmetirom for reducing liver volume” (Madrigal Pharmaceuticals, Inc., priority 2021, dated 2026)

How the values were obtained:
Format in all cases: in vivo, human
[1] = system: adults with biopsy-confirmed NASH (NAS≥4, F1-F3) and hepatic fat fraction ≥10%; experiment: 36-week Phase 2 serial MRI-PDFF and liver biopsy study; MRI-PDFF and liver volume (LV) assessment
Protocol: Hepatomegaly may cause symptoms (e.g., pain) in NASH patients, and is thought to be driven primarily by high liver fat content. […] The purpose of this study was to assess the relationship between liver triglycerides as measured by MRI-PDFF and liver volume (LV) in placebo and resmetirom-treated patients.
(§1) MRI-PDFF and liver volume (LV) were assessed in, (n=117), and a NASH-cirrhotic active resmetirom treatment arm of MAESTRO-NAFLD-1 (n=73), in patients who had at least baseline and one additional serial PDFF. LV was assessed using a validated artificial intelligence model for segmenting the liver on standard MR images.
LV at baseline was elevated in non-cirrhotic and cirrhotic NASH patients relative to literature values for healthy controls and was greater than predicted even after accounting for sex and body weight. PDFF correlated with LV at baseline in non-cirrhotic (r2=0.19, p<0.001) and more weakly in cirrhotic NASH (r2=0.079, p=0.01). Reduction in LV (CFB) correlated with reduction in PDFF in placebo (r2=0.25, p=0.001) and resmetirom (r2-0.38, p<0.0001) treated patients at 12 (and 36 (not shown)) weeks (see, e.g., FIG. 1).

[2] = system: well-compensated NASH cirrhotic patients; experiment: MAESTRO-NAFLD-1 open label resmetirom arm in well-compensated NASH cirrhotic patients
Protocol: as §1
MAESTRO-NAFLD-1 is a 52-week >1200 patient Phase 3 randomized double blind placebo controlled NASH clinical trial to study safety and biomarker effects of resmetirom, a selective thyroid hormone receptor beta agonist, in NASH patients with F1-F4 fibrosis identified using non-invasive biomarkers and imaging (NCT04197479). A goal of this “real life” NASH study is to identify non-invasive markers that correlate with individual patient response to resmetirom treatment. The study includes an open label active resmetirom treatment arm in well-compensated NASH cirrhotic patients.
Eligibility required at least 3 metabolic risk factors (metabolic syndrome), and NASH cirrhosis diagnosed on liver biopsy or according to accepted criteria. The primary and key secondary end points of the cirrhotic arm include safety, relative percent reduction of MRI-PDFF (week 16), LDL cholesterol (LDL-C) (week 24), Apolipoprotein B and triglycerides, and markers of fibrosis. Patients received 80-100 mg daily dose of resmetirom for 52 weeks.
105 well-compensated NASH cirrhotic patients were enrolled in the open label arm, 2/3 confirmed by liver biopsy. Demographics include mean age 62.7 (9.0 (SD)), female 64%, BMI 35.4 (7.4), diabetes 70%, hypertension 77%, dyslipidemia >70%, mean ASCVD score 16.1%, hypothyroid 32.4%, 51% on statins. MRE kPa, 5.7 (2.1); fibroscan kPa, 24.6 (14.9), CAP, 318 (59) and mean MRI-PDFF, 8.1% (5). Stage of cirrhosis was inversely correlated with baseline PDFF. At week 52 resmetirom lowered fibroscan CAP (−42 units (p<0.0001) and kPa (−7.6 kPa, p=0.02).

[3] = system: noninvasively identified NASH patients; experiment: MAESTRO-NAFLD-1 52 week Phase 3, 100 mg open label (OL) non-cirrhotic NASH arm
Protocol: MAESTRO-NASH NCT03900429 and MAESTRO-NAFLD-1 NCT04197479 are 52 week Phase 3 registrational double blind placebo controlled clinical trials to study the effect of resmetirom in more than 2,000 NASH patients. A goal of MAESTRO-NAFLD-1, a 1,200 patient “real life” NASH study is to identify non-invasive markers that correlate with patient response to resmetirom treatment. The 169 patient, 100 mg open label (OL) arm completed the 52 week study in July 2021.
Eligibility required at least 3 metabolic risk factors (Metabolic syndrome), fibroscan kilopascals (kPa) consistent with ≥F1 fibrosis stage, and MRI-PDFF≥8%. The primary and key secondary endpoints of MAESTRO-NAFLD-1 including safety, relative percent reduction of MRI-PDFF (week 16), LDL cholesterol (LDL-C) (week 24), apolipoprotein B and triglycerides, fibroscan and 52 week endpoints were analyzed in the OL arm.

[4] = cirrhotic NASH patients with PDFF≤5% at baseline, week 16

What does the source list for CC(C)c1cc(Oc2c(Cl)cc(-n3nc(C#N)c(=O)[nH]c3=O)cc2Cl)n[nH]c1=O [resmetirom, 2-(3,5-dichloro-4-((5-isopropyl-6-oxo-1,6-dihydropyridazin-3-yl)oxy)phenyl)-3,5-dioxo-2,3,4,5-tetrahydro-1,2,4-triazine-6-carbonitrile]?
LV reduction ([1]; 12 weeks, p<0.0001 vs placebo): −18.6%; liver fat reduction (MRI-PDFF) ([1]; 36-week Phase 2, compared with placebo, associated with NASH resolution on liver biopsy): statistically significant liver fat reduction; LV reduction ([1]; 36 weeks, p<0.0001 vs placebo): −20.5%; percentage of patients with ≥15% reduction in liver volume ([1]; Week 12, p<0.0001 vs placebo): 69.2%; week 12 imaging response in patients who had NASH resolution and/or fibrosis reduction on biopsy at week 36 ([1]; all such resmetirom treated patients): PDFF reduction ≥30% and/or LV reduction of ≥15%; safety and tolerability ([2]; 80-100 mg daily up to 52 weeks): safe and well-tolerated; fibroscan CAP change ([2]; 80-100 mg daily, week 52, p<0.0001): −42 units; fibroscan kPa change ([2]; 80-100 mg daily, week 52, p=0.02): −7.6 kPa; BP reduction ([2]; NASH cirrhotic arm): 4-5 mm; LV mean % CFB [2, 4]: −16.3%; PDFF mean % CFB [2, 4]: −2.5%; ApoB reduction ([2]; independent of cirrhosis stage): 20%; LDL-C reduction ([2]; independent of cirrhosis stage): 20%; Lp (a) reduction ([2]; independent of cirrhosis stage): 30%; triglycerides reduction ([2]; independent of cirrhosis stage): 21%; GGT change ([2]; p=0.04): −27%; PDFF lowered by ([2]; patients with baseline PDFF>5%, p<0.0057): 37%; MRE lowered by ([2]; week 52): 0.68 kPa; patients with MRE reduction of ≥15% ([2]; week 52): 34%; patients with ≥15% reduction in LV ([2]; week 52, independent of baseline cirrhosis severity): 73%; ELF (inflammatory and fibrosis biomarker) ([3]; 100 mg OL arm): Significant reductions; LV reduction relative to that predicted by % reduction in MRI-PDFF ([3]; 100 mg OL arm): 2-3 fold; M30 (inflammatory and fibrosis biomarker) ([3]; 100 mg OL arm): Significant reductions; adiponectin ([3]; 100 mg OL arm): increase; reverse T3 (inflammatory and fibrosis biomarker) ([3]; 100 mg OL arm): Significant reductions; LDL-C reduction ([3]; 100 mg OL arm, p<0.0001): −22%; apolipoprotein-B reduction ([3]; 100 mg OL arm, p<0.0001): −24%; triglycerides reduction ([3]; 100 mg OL arm, p<0.0001): −24%; blood pressure (systolic, diastolic) reduction ([3]; 100 mg OL arm, p=0.02): ~2 mmHg; patients with weight loss ≥5% ([3]; 100 mg OL arm, linked to resmetirom exposure (SHBG)): ~25%; safety ([3]; 100 mg per day up to 52 weeks): No safety flags were identified; liver volume (LV) reduction ([3]; 100 mg, week 52, p<0.0001): −23%; bone mineral density (DEXA) ([3]; 52 weeks): unchanged; fibroscan CAP change relative to baseline ([3]; week 52, p<0.0001): −39 (4.6); fibroscan VCTE change relative to baseline ([3]; week 52, p<0.0001): −1.87; fibroscan VCTE percent change relative to baseline ([3]; week 52, p<0.0001): −20%; MRE change relative to baseline ([3]; week 52, p=0.03): −0.34
